The values that follow come from ChEMBL document CHEMBL3507680, “University of Dundee, Gates Library screen for HepG2 cell viability”.

SMILES strings stand for the structures.

The nature of the data set: Human HepG2 cell viability assay in 384 well format. The format is toxicity, cell-based. Also on record: dose 125 nL, time 70.5 hour; concentration not given beside the values. As to conditions: HepG2 cells, read-out: Inhibition.

For the compound `Cc1cc(C)c(S(=O)(=O)Nc2cccc3c2OCCO3)cc1C(=O)O`, the cytotoxicity at 70.5 h is -27.2%.

`CCC(CC)NC(=O)c1nc2n(n1)-c1ccccc1S(=O)(=O)N2`: the cytotoxicity at 70.5 h is -82.7%.

On to `Cc1ncc(C(=O)OCC2CCN(c3ccccc3)C2)s1` (configuration not stated), for which the cytotoxicity at 70.5 h is -126%.

`Cn1cccc1C(=O)NC(C)(C(N)=O)c1cccc(Cl)c1` (configuration not stated): the cytotoxicity at 70.5 h was -98.6%.

Turning to `N#Cc1c(F)cccc1Nc1cnn(CC(O)CN2CCOCC2)c1` (configuration not stated), the cytotoxicity at 70.5 h is -102%.

Take `NC(=O)C1CCN(c2ccc3cc(Br)ccc3n2)C1` (configuration not stated): the cytotoxicity at 70.5 h is -89.2%.

Regarding `CCN(CC)C(=O)CCc1nc(-c2cnn3c(C)cc(C)nc23)no1`, the cytotoxicity at 70.5 h was -121%.

For `CNS(=O)(=O)CC(=O)N1CCCc2cc(Br)ccc21`, the cytotoxicity at 70.5 h is -88.8%.

Take `N#Cc1c(Cl)nsc1NCc1cccnc1OC1CCCC1`: the cytotoxicity at 70.5 h was -94.1%.

In the case of `O=C(OCC1CCCN(C(=O)c2ccccc2)C1)c1cscn1` (configuration not stated), the cytotoxicity at 70.5 h is -88.6%.

Regarding `CN(Cc1cnn(C)c1)C(=O)CCS(=O)(=O)c1ccc2c(c1)OCCO2`, the cytotoxicity at 70.5 h is -112%.

In the case of `CCOc1ccc(CNC(=O)N(C)CC(C)(C)O)cc1C`, the cytotoxicity at 70.5 h is -60%.

Regarding `CCn1nc(C)cc1C(=O)N1CCC(Nc2ccc(C)nn2)CC1`, the cytotoxicity at 70.5 h is -85.5%.

As for `CN(Cc1cnn(C)c1)C(=O)CCc1ccc2c(c1)OCO2`, the cytotoxicity at 70.5 h is -58.4%.

Turning to `CN(Cc1cc(Br)cn1C)C(=O)c1cscn1`, the cytotoxicity at 70.5 h was -0.963%.

On to `CNS(=O)(=O)Cc1ccccc1CNc1ccc(C#N)cn1`, for which the cytotoxicity at 70.5 h stood at 22.4%.

With `COc1cc(CNC(=O)Nc2nnc(C(C)C)s2)ccc1O`, the cytotoxicity at 70.5 h is -10.5%.

In the case of `COc1cc(CNC(=O)Nc2nnc(C(F)(F)F)s2)ccc1O`, the cytotoxicity at 70.5 h turned out to be 2.56%.

Take `CNS(=O)(=O)Cc1ccc(CNc2ccc(C#N)cn2)cc1`: the cytotoxicity at 70.5 h was -6.5%.

For `Cc1nnc2n1CCN(C(=O)c1cnc3c(cnn3C(C)C)c1)C2`, the cytotoxicity at 70.5 h was determined as 25.5%.

Take `CCCN1CCCN(C(=O)Nc2ccc3c(c2)OCO3)CC1`: the cytotoxicity at 70.5 h was -7.91%.

Regarding `Cc1nnc2n1CCN(C(=O)c1cnc3c(cnn3CC(C)C)c1)C2`, the cytotoxicity at 70.5 h was 25.8%.

Turning to `CCCn1[nH]cc/c1=N\C(=O)CN1CCCC1c1cccn1C` (configuration not stated), the cytotoxicity at 70.5 h was -2.18%.

Consider `O=C(NS(=O)(=O)Cc1cc(-c2ccccc2)no1)C1CCOCC1`, for which the cytotoxicity at 70.5 h was -1.22%.

As for `CCOCC(=O)NC(C)Cc1ccccc1Br` (configuration not stated), the cytotoxicity at 70.5 h was -4.95%.

Regarding `CS(=O)(=O)CCC(=O)NC(c1ccc(F)cc1)C(F)(F)F` (configuration not stated), the cytotoxicity at 70.5 h is -1.59%.

As to `Cc1cc(S(=O)(=O)N2CC[C@@H](O)C2)c(Cl)cc1F`, the cytotoxicity at 70.5 h was -6.21%.

Turning to `COC(=O)NCCC(=O)NC(C)Cc1ccccc1Br` (configuration not stated), the cytotoxicity at 70.5 h is -7.4%.

For `Cc1ccc(N(CCC#N)C(=O)CN2CCCC2c2cccs2)cc1` (configuration not stated), the cytotoxicity at 70.5 h is -2.42%.

As for `CCCn1[nH]cc/c1=N\C(=O)CN1CCCC1Cn1cc(C)cn1` (configuration not stated), the cytotoxicity at 70.5 h was -4.99%.

Take `CC(CS(C)(=O)=O)N(C(=O)Nc1cc(F)ccc1Cl)C1CC1` (configuration not stated): the cytotoxicity at 70.5 h worked out at 2.35%.

For the compound `CCc1ccc(CNC(=O)CCNc2ncccn2)s1`, the cytotoxicity at 70.5 h was -13.5%.

As to `O=C(CCNc1ncccn1)NCc1ccc(Br)s1`, the cytotoxicity at 70.5 h was -11.3%.

Regarding `CCc1ccc(CNC(=O)CCNS(=O)(=O)c2cn(C)c(C)n2)s1`, the cytotoxicity at 70.5 h is -7.93%.

For the compound `O=C(CN1C=Nc2ccccc2S1(=O)=O)NC1CCCCC1`, the cytotoxicity at 70.5 h was determined as 3.38%.

Turning to `O=C(c1cc(C2CC2)[nH]n1)N1CCCN(c2nccs2)CC1`, the cytotoxicity at 70.5 h is -5.32%.

Take `CC(NC(=O)CN1C=Nc2ccccc2S1(=O)=O)C1CC1` (configuration not stated): the cytotoxicity at 70.5 h was found to be 11%.

Regarding `Cc1csc(N2CCN(C(=O)c3cc(C4CC4)[nH]n3)CC2)n1`, the cytotoxicity at 70.5 h is -5.91%.

Consider `CCCc1nc(C)c(C(=O)NCc2ccc(C)n2C)s1`, for which the cytotoxicity at 70.5 h was found to be 17.6%.

As to `Cc1cnn(CCC(=O)NS(=O)(=O)N2CCCc3ccccc32)c1`, the cytotoxicity at 70.5 h was -5.92%.

Turning to `Cc1cnn(CCC(=O)NS(=O)(=O)N2CCc3ccccc32)c1`, the cytotoxicity at 70.5 h is -8.38%.

`Cc1c(Br)cccc1C(=O)NCc1cnn(C)c1`: the cytotoxicity at 70.5 h is 2.04%.

Regarding `Cc1c(NC(C)C(C)C)cccc1C(=O)NCc1nccn1C` (configuration not stated), the cytotoxicity at 70.5 h was -3.37%.

With `O=C(CC1=CCCCC1)NCc1ccnc(OC2CCOCC2)c1`, the cytotoxicity at 70.5 h was -6.35%.

Regarding `CCOC(=O)c1ccc(CNC(=O)c2ccc(C)nc2)o1`, the cytotoxicity at 70.5 h was 11%.

Regarding `Cc1cc(C(=O)OCC2CCCN2C(N)=O)c(C)o1` (configuration not stated), the cytotoxicity at 70.5 h is -6.63%.

As to `COc1ccccc1CC1CCN(C(=O)CCc2ccccn2)CC1`, the cytotoxicity at 70.5 h is -8.07%.

As to `CCOC(=O)c1ccc(CNC(=O)c2ccncc2Cl)o1`, the cytotoxicity at 70.5 h was -7.26%.

Consider `Cc1nc(C(C)C)sc1C(=O)N(C)Cc1cnn(C)c1`, for which the cytotoxicity at 70.5 h amounted to 14.2%.

For the compound `COc1ccccc1CC1CCCN(CCN2CCOC2=O)C1` (configuration not stated), the cytotoxicity at 70.5 h is -7.17%.

Consider `O=C(CS(=O)(=O)c1ccc(Cl)cc1)NC1CCCc2ccccc21` (configuration not stated), for which the cytotoxicity at 70.5 h was 1.89%.

With `Cc1noc(C)c1C(=O)NCCN1CCN(c2ccccc2)CC1`, the cytotoxicity at 70.5 h was determined as 1.76%.

Take `CS(=O)(=O)NC1CCCN(C(=O)Nc2cccnc2N2CCCC2)C1` (configuration not stated): the cytotoxicity at 70.5 h was determined as 0.921%.

As for `COCCn1nc(C(=O)N(C)Cc2ccc3ccccc3c2)ccc1=O`, the cytotoxicity at 70.5 h was -0.954%.

For the compound `Cc1ccsc1C(=O)N1CCC(Nc2cccnc2)CC1`, the cytotoxicity at 70.5 h was -4.2%.

`COCCOc1ccc(NC(=O)N2CCOC(C(N)=O)C2)cc1F` (configuration not stated): the cytotoxicity at 70.5 h is 25.8%.

On to `CC(C)c1nnc2n1CCN(C(=O)c1cn(-c3ccccc3)nn1)C2`, for which the cytotoxicity at 70.5 h is -6.83%.

Turning to `N#CCSCCCN1CCN(C(=O)c2cccc(Cl)c2)CC1`, the cytotoxicity at 70.5 h was 2.68%.

On to `COCCn1nc(C(=O)N(C)Cc2cccnc2)ccc1=O`, for which the cytotoxicity at 70.5 h came out at 4.23%.

With `COCCNC(=O)CN(C)CCn1nc2ccccn2c1=O`, the cytotoxicity at 70.5 h is -5.55%.

Regarding `COC(=O)C(C)(C)NC(=O)C1CC(=O)N(C2CC2)C1` (configuration not stated), the cytotoxicity at 70.5 h is -6.5%.

As to `CCOC(=O)N1CCN(C(=O)c2cc(-c3ccccc3F)on2)CC1`, the cytotoxicity at 70.5 h was -0.971%.

As to `O=C(NCc1cccnc1)NC1CCCN(c2ncccn2)C1` (configuration not stated), the cytotoxicity at 70.5 h is -10.3%.

On to `O=C(NCc1cccc(F)c1)NC1CCCN(c2ncccn2)C1` (configuration not stated), for which the cytotoxicity at 70.5 h was -9.75%.

Consider `N#Cc1ccc(CNC(=O)NC2CCCN(c3ncccn3)C2)cc1` (configuration not stated), for which the cytotoxicity at 70.5 h is -9.27%.

Turning to `Cc1ccc(CNC(=O)NC2CCCN(c3ncccn3)C2)n1C` (configuration not stated), the cytotoxicity at 70.5 h is -8.01%.

For `CN(C)C(=O)Cc1ccc(NC(=O)NC2CCCC2)cc1`, the cytotoxicity at 70.5 h is -7.5%.

For the compound `CC(C)CN1CCN(C(=O)c2cc(=O)c3ccccc3[nH]2)CC1`, the cytotoxicity at 70.5 h is -2.68%.

On to `COCc1ccccc1NC(=O)NCc1ccc(OCC2CC2)nc1`, for which the cytotoxicity at 70.5 h was -7.17%.

On to `O=C(NCc1ccc(OCC2CC2)nc1)Nc1c(F)cccc1F`, for which the cytotoxicity at 70.5 h is -2.96%.

With `Cc1nn(CC(=O)N2CCCN(c3cccnn3)CC2)c(C)c1Cl`, the cytotoxicity at 70.5 h turned out to be 0.771%.

With `Cc1nc(CC(=O)N2CCN(Cc3ccc(C#N)cc3)CC2)cs1`, the cytotoxicity at 70.5 h was -1.78%.

Regarding `CCOc1ccc(S(=O)(=O)NC(=O)c2c(C)noc2C(C)C)cc1`, the cytotoxicity at 70.5 h turned out to be 1.8%.

Turning to `Cc1ccc(CCCC(=O)N(C)CCN2CCOCC2)cc1`, the cytotoxicity at 70.5 h amounted to 13.8%.

For `COc1ccc(CCC(=O)N(C)CCN2CCOCC2)cc1OC`, the cytotoxicity at 70.5 h was -7.02%.

Regarding `Cc1cnn(CC2CCCN2C(=O)Cc2c(C)noc2Cl)c1` (configuration not stated), the cytotoxicity at 70.5 h was -4.41%.

`Cc1nccn1C1CCCN(C(=O)c2cnn(C)c2C2CC2)C1` (configuration not stated): the cytotoxicity at 70.5 h was -0.648%.

Consider `Cc1ncncc1C(=O)N1CCCC(n2ccnc2C)C1` (configuration not stated), for which the cytotoxicity at 70.5 h stood at 1.79%.

Consider `CC1CCCCN1C(=O)c1n[nH]c(=O)c2ccccc12` (configuration not stated), for which the cytotoxicity at 70.5 h was 32.4%.

For `CC(OCCCNC(=O)c1cccnc1O)c1ccccc1` (configuration not stated), the cytotoxicity at 70.5 h was -1.73%.

Regarding `CC(=O)NCCNC(=O)c1ccc(C)c(-n2cccc2)c1`, the cytotoxicity at 70.5 h was -10.2%.

On to `Cc1ccc(C(=O)NC2CCOc3ccccc32)cc1S(C)(=O)=O` (configuration not stated), for which the cytotoxicity at 70.5 h came out at 27.5%.

Regarding `COC(=O)c1ccoc1CN(C)CC(=O)N(C)C`, the cytotoxicity at 70.5 h was -8.41%.

Turning to `O=C(NCc1ccccc1F)N1CCCCC1C1OCCO1` (configuration not stated), the cytotoxicity at 70.5 h was -17.1%.

Consider `CCCc1noc(C(C)N2CCN(c3ccc(C#N)cn3)CC2)n1` (configuration not stated), for which the cytotoxicity at 70.5 h is -10.8%.

Take `CC(c1nc(C(C)(C)C)no1)N1CCN(c2ccc(C#N)cn2)CC1` (configuration not stated): the cytotoxicity at 70.5 h was -13.9%.

In the case of `Cn1ccc2c(C(=O)N3CCN(C(=O)C4CCCC4)CC3)cccc21`, the cytotoxicity at 70.5 h is -5.41%.

Regarding `CC(=O)N(C)C1CCN(C(=O)c2cccc3c2ccn3C)CC1`, the cytotoxicity at 70.5 h stood at 24.8%.

As to `CC(C)C(C)NC(=O)Nc1ccc(CS(=O)(=O)C(C)C)cc1` (configuration not stated), the cytotoxicity at 70.5 h was -12.6%.

As for `CNC(=O)C1CCCCN1C(=O)c1n[nH]c(=O)c2ccccc12` (configuration not stated), the cytotoxicity at 70.5 h is -6.33%.

`O=C(CCNC(=O)c1cccc(OC(F)F)c1)Nc1cccnc1`: the cytotoxicity at 70.5 h is -3.8%.

For the compound `COc1cccc2c1OCC(NC(=O)NCCc1ccccn1)C2` (configuration not stated), the cytotoxicity at 70.5 h is -9.54%.

Turning to `CC(C)NC(=O)Nc1ccc(CS(C)(=O)=O)cc1`, the cytotoxicity at 70.5 h was -0.657%.

For the compound `Cc1cnn(CC2CCCN2C(=O)CCc2c(C)nn(C)c2C)c1` (configuration not stated), the cytotoxicity at 70.5 h is -18.5%.

As to `CC(C)c1ccc(C(CN)N2CCc3sccc3C2)cc1` (configuration not stated), the cytotoxicity at 70.5 h is -2.57%.

Regarding `CCCc1noc(CCC(=O)N2CCCCC2Cn2cc(C)cn2)n1` (configuration not stated), the cytotoxicity at 70.5 h was -13.5%.

Take `COc1cccc(N2CCN(CCC(=O)NC3CCCCC3)CC2)c1`: the cytotoxicity at 70.5 h was 16.7%.

In the case of `Cc1ccc(CCNC(=O)N2CCC(Cc3cnn(C)c3)C2)cn1` (configuration not stated), the cytotoxicity at 70.5 h was -1.42%.

For the compound `COc1ccc(C(=O)NCCCOC(C)c2ccccc2)c(OC)c1` (configuration not stated), the cytotoxicity at 70.5 h was -11.1%.

For `Cc1cnn(CC2CCCN2C(=O)Cc2c(C)noc2C)c1` (configuration not stated), the cytotoxicity at 70.5 h is -14%.

Regarding `CN(CCc1ccncc1)C1CCCN(Cc2noc(C3CC3)n2)C1` (configuration not stated), the cytotoxicity at 70.5 h was -2.71%.

`Cc1ccc(O)c(CNC2CCc3nc(C)nn3C2)n1` (configuration not stated): the cytotoxicity at 70.5 h is -0.718%.
